From US9592294B2, “Polyalkoxylated alcohols as excipients for pharmaceutical compositions” (Dow Global Technologies LLC, priority 2013, dated 2017)

Legend:
[1] = Turbidity of wet-milled reference drug suspensions without excipient; assay type: physicochemical; settings: 26 mg/L Probucol, assuming linear relationship between undissolved drug and turbidity
Method: Moreover, wet-milled drug suspensions were analyzed as reference samples to determine the turbidity of the drugs in the absence of excipients. […] 78.6 g of yttrium-stabilized zirconia grinding beads (YTZ from Tosoh Corp., diameter: 0.5 mm) were provided in a 50 mL plastic bottle and 10.0 g deionized water and 0.54 g of the respective drug were added. In the case of Probucol, a dispersant, Daxad 19LS (from Hampshire Chem. Corp.), was added in an amount corresponding to 1 wt. % of the mass of Probucol to counteract coating of the milling beads by the drug. The resulting mixture was placed on a rotating ball mill for 24 h. Subsequently 11.06 g of deionized water were added, the suspension was shaken extensively and then separated from the milling beads. An aliquot of 0.20 g of this suspension was further diluted with 49.80 g of deionized water to yield a suspension having a nominal drug concentration of 0.01 wt. %, which was then analyzed for its turbidity using a Nepheloskan Ascent instrument from ThermoLabsystem. […] Table 5 summarizes the measured turbidity of the wet milled reference drug suspensions along with the average particle size of the suspended drug particles measured using a 90 Plus Particle Size Analyzer instrument from Brookhaven Instruments Corp. and literature values for the aqueous solubility of the drugs.

[2] = phosphate buffer pH 7.0, terpene alcohol ethoxylates 20 wt. %, versus buffer alone; cited from earlier work

Compound | Turbidity calculated for a Probucol suspension [1] | Increase of saturation drug concentration (factor) [2]
CC(C)(Sc1cc(C(C)(C)C)c(O)c(C(C)(C)C)c1)Sc1cc(C(C)(C)C)c(O)c(C(C)(C)C)c1 [Probucol] | ~24 RNU | 
Nc1ccc(S(=O)(=O)Nc2nccs2)cc1 [sulfathiazole] |  | about 14
